In paper PMC12683216, “Using High‐Throughput Screening to Identify Crosslinking Peptides That Control Cell‐Mediated Matrix Degradation” (Advanced Healthcare Materials, 2025):
Where a SMILES comes first, the peptide text is derived from it. [ ]: non-standard residue; d: D form. βAla = NCCC(=O)O

Tests used:
Assay type in all cases: in vitro ADME, human
Settings in all cases: human, 24 h, LC-MS
[1] = Soluble peptide degradation, Media condition (cell-conditioned media, LC-MS)
Description: (§1) Most in vitro protease activity assays incubate the peptides or proteins of interest with a single protease in a buffered solution. However, the kinetics of protease activity in tissues are complex and highly regulated, and both the activity^[ [37] ^] and substrate specificity^[ [38] ^] of proteases can be modulated through association with other proteins.^[ [39] ^] Most MMP‐substrate peptides are also cleaved by multiple proteases,^[ [5] ^] and within the context of biomaterials, the most important factor is typically how the combined activity of all proteases, rather than the activity of any specific protease, modifies the local microenvironment versus the activity due to any individual enzyme. We synthesized peptides identified in the TAILS proteomic screen that were present on proteins that are known to be secreted or found on the cell membrane, pooled them, and added them either to cell culture media on top of cells, the “Cells” condition, or conditioned media lacking cells, the “Media” condition (Figure 2A). The fraction of peptides remaining after 24 h in each condition was then quantified using LC‐MS. Soluble proteases should be present in both conditions, however, membrane‐type proteases should primarily be found in the samples containing cells and not the conditioned media samples. A key benefit of this approach is that it surveys the total functional proteolytic activity, including the effects of inhibitors and co‐factors, and quantifies the degradation rate of soluble peptides by the complete secretome of different cell types.
(§2) hUVECs (75000 per well) or hMSCs (36000 per well) were seeded into a 48 well plate, and 500 µL media was added to the wells. […] The peptide libraries were dissolved at a stock solution of 10 mM total peptide content. For libraries containing 38 peptides, 95 µL of the stock solution was added to each well; for libraries with 19 peptides, 47.5 µL was added to each well, and media was taken at 0 and 24 h. Add 4 µL of acetic acid to all collected media in the LC‐MS plates and store them in a −80 °C freezer to prevent further proteolytic degradation. From each sample, 10 µL of crude solution was introduced by the LC‐MS through a Thermo Scientific Vanquish LC System (Thermo Fisher Scientific), which outputted to a Thermo Scientific LTQ XL Linear Ion Trap Mass Spectrometer (Thermo Fisher Scientific). The sampled mixture was trapped on a column (ProntoSIL C18 AQ, 120 Å, 3 µm, 2.0 x 50 mm HPLC Column, PN 0502F184PS030, MAC‐MOD Analytical Inc.). The samples were loaded onto the column with a solvent containing acetonitrile/water, 5:95 (v/v) containing 1% acetic acid at a flow rate of 300 µL min^−1 and held for 1 min. The sample was then eluted from the column with a linear gradient of 5–40% Solvent B (1% acetic acid in acetonitrile) at the same flow rate for 5 min. This was followed by a 1 min ramp up to 100% Solvent B, where it was re‐equilibrated with Solvent A (1% acetic acid) to 5% solvent B over the course of 1 min and held there for 2 min. The column temperature was kept at a constant 29 °C, and the mass spectrometer was operated in positive ion mode. Using a Heated ESI, the Source Voltage was set to 4.1 kV, and the capillary temperature was 350 °C. For non‐library degradation studies, 2.5 µL of 10 mM peptide stock solution for each peptide was added.
(§3) To assess the activity of the conditioned media, the media were divided into two equal portions. One portion was used for a standard degradation study, while the other was cultured for an additional 24 h before the PanMMP and KLVADLMASAE were added. After 24 h of incubation, the media were collected for further analysis. To assess the impact of recombinant MMP‐14 on PanMMP and KLVADLMASAE, recombinant MMP‐14 (antibodies.com) was dissolved in the media at a concentration of 0.5 nM. The remaining steps followed the standard degradation study protocol. […]

[2] = as above; remark: listed apart in the source
Description: as §1, §2, §3

[3] = Soluble peptide degradation, Cells condition (LC-MS)
Description: as §1, §2
In the MMP‐14 inhibitor study, the MMP‐14 inhibitor NSC 405 020 (Cayman Chemical Company) was dissolved in DMSO to make a 10 mM stock solution and stored in −20 °C freezer. 0.5 µL MMP‐14 inhibitor stock solution was added to each well to achieve a 10 µM final concentration.
For all degradation studies using soluble peptides, a non‐proteolytically degradable NH2‐βFβAβAβAβAβAβA‐amide (βFβA6) peptide, where βF is β‐phenylalanine and βA is β‐alanine, was added at a 50 µM concentration and used as an internal standard. Peptide degradation ratios were measured by LC‐MS and analyzed by Xcalibur. […]

[4] = hUVEC-conditioned media without cells (Media condition), Figure 3B heatmap, split-and-pool libraries KLVADX1X2ASAE in hUVEC-conditioned media without cells, ratio to βFβA6, N = 2, read-out: Fraction of peptide remaining after 24 hours: hUVEC Media
[5] = hMSC-conditioned media without cells (Media condition), Figure 3B heatmap, split-and-pool libraries KLVADX1X2ASAE in hMSC-conditioned media without cells, ratio to βFβA6, N = 2, read-out: Fraction of peptide remaining after 24 hours: hMSC Media
[6] = hMSCs in culture with fresh media (Cells condition), Figure 3B heatmap, split-and-pool libraries KLVADX1X2ASAE (19 or 38 peptides per library) in media on hMSCs, ratio to βFβA6, N = 2, read-out: Fraction of peptide remaining after 24 hours: hMSC Cells
[7] = hUVECs in culture with fresh media (Cells condition), Figure 3B heatmap, split-and-pool libraries KLVADX1X2ASAE in media on hUVECs, ratio to βFβA6, N = 2, read-out: Fraction of peptide remaining after 24 hours: hUVEC Cells
[8] = Figure 2B heatmap, pooled TAILS-derived soluble peptides in 24 h hUVEC-conditioned media without cells, ratio to βFβA6 internal standard, 24 h / 0 h, N = 5, read-out: Fraction of peptide remaining at 24 hours: hUVEC Media
[9] = Figure 2B heatmap, pooled TAILS-derived soluble peptides in 24 h hMSC-conditioned media without cells, ratio to βFβA6 internal standard, 24 h / 0 h, N = 5, read-out: Fraction of peptide remaining at 24 hours: hMSC Media
[10] = hMSCs in culture with fresh media (Cells condition), Figure 2B heatmap, pooled TAILS-derived soluble peptides (Ac-βAla N-terminus, βAla-amide C-terminus) in media on hMSCs (36000 per well, 48 well plate, 500 µL), ratio to βFβA6 internal standard, 24 h / 0 h, N = 5, read-out: Fraction of peptide remaining at 24 hours: hMSC Cells
[11] = hUVECs in culture with fresh media (Cells condition), Figure 2B heatmap, pooled TAILS-derived soluble peptides in media on hUVECs (75000 per well, 48 well plate, 500 µL), ratio to βFβA6 internal standard, 24 h / 0 h, N = 5, read-out: Fraction of peptide remaining at 24 hours: hUVEC Cells

| SMILES | remaining at 24 h [1, 4] | remaining at 24 h [2, 5] | remaining at 24 h [3, 6] | remaining at 24 h [3, 7] | remaining at 24 h [1, 8] | remaining at 24 h [2, 9] | remaining at 24 h [3, 10] | remaining at 24 h [3, 11] |
| --- | --- | --- | --- | --- | --- | --- | --- | --- |
| CC(=O)NCCC(=O)N[C@@H](CCCCN)C(=O)N[C@@H](CC(C)C)C(=O)N[C@H](C(=O)N[C@@H](C)C(=O)N[C@@H](CC(=O)O)C(=O)N[C@@H](CC(=O)O)C(=O)N[C@@H](CCC(N)=O)C(=O)N[C@@H](C)C(=O)N[C@@H](CO)C(=O)N[C@@H](C)C(=O)N[C@@H](CCC(=O)O)C(=O)NCCC(N)=O)C(C)C [Asp-Gln] (Ac-[βAla]KLVADDQASAE[βAla]-NH2) | 102% | 75% | 39% | 84% |  |  |  |  |
| CC(=O)NCCC(=O)N[C@@H](CCC(=O)O)C(=O)N[C@@H](CCC(=O)O)C(=O)N[C@@H](CO)C(=O)N[C@@H](CO)C(=O)N[C@@H](Cc1c[nH]c2ccccc12)C(=O)NCC(=O)NCC(=O)N[C@@H](CO)C(=O)N1CCC[C@H]1C(=O)N[C@@H](CO)C(=O)N1CCC[C@H]1C(=O)N[C@H](C(=O)N[C@@H](CCCNC(=N)N)C(=O)NCCC(N)=O)C(C)C [EESSWGGSPSPVR] (Ac-[βAla]EESSWGGSPSPVR[βAla]-NH2) |  |  |  |  | 102% | 99% | 89% |  |
| CSCC[C@H](NC(=O)[C@H](CC(=O)O)NC(=O)[C@H](C)NC(=O)[C@@H](NC(=O)[C@H](CC(C)C)NC(=O)[C@H](CCCCN)NC(=O)CCNC(C)=O)C(C)C)C(=O)N[C@@H](C)C(=O)N[C@@H](C)C(=O)N[C@@H](CO)C(=O)N[C@@H](C)C(=O)N[C@@H](CCC(=O)O)C(=O)NCCC(N)=O [Met-Ala] (Ac-[βAla]KLVADMAASAE[βAla]-NH2) | 97% | 61% | 38% | 88% |  |  |  |  |
| CC[C@H](C)[C@H](NC(=O)[C@@H](NC(=O)[C@H](CCSC)NC(=O)[C@@H]1CCCN1C(=O)[C@H](CCCCN)NC(=O)[C@H](CCCCN)NC(=O)CCNC(C)=O)[C@@H](C)O)C(=O)N[C@@H](C)C(=O)N[C@@H](CCCNC(=N)N)C(=O)N[C@@H](CC(C)C)C(=O)N[C@@H](CC(N)=O)C(=O)N[C@@H](C)C(=O)N[C@@H](CCCCN)C(=O)N[C@@H](CCCCN)C(=O)NCCC(N)=O [KKPMTIARLNAKK] (Ac-[βAla]KKPMTIARLNAKK[βAla]-NH2) |  |  |  |  | 74% | 94% | 75% | 73% |
| CC[C@H](C)[C@H](NC(=O)[C@H](CCC(=O)O)NC(=O)[C@H](C)NC(=O)[C@H](CC(C)C)NC(=O)[C@H](C)NC(=O)[C@H](CC(=O)O)NC(=O)CCNC(C)=O)C(=O)N[C@@H](CC(C)C)C(=O)N[C@@H](CCC(N)=O)C(=O)N[C@@H](C)C(=O)N[C@@H](CC(N)=O)C(=O)N[C@@H](CC(=O)O)C(=O)NCCC(N)=O [DALAEILQAND] (Ac-[βAla]DALAEILQAND[βAla]-NH2) |  |  |  |  |  | 90% | 81% | 84% |
| CSCC[C@H](NC(=O)[C@H](CCC(=O)O)NC(=O)CNC(=O)[C@H](Cc1ccccc1)NC(=O)[C@H](CO)NC(=O)[C@H](Cc1ccc(O)cc1)NC(=O)[C@@H](NC(=O)[C@H](CCC(=O)O)NC(=O)CCNC(C)=O)C(C)C)C(=O)N1CCC[C@H]1C(=O)N[C@@H](Cc1c[nH]c2ccccc12)C(=O)NCCC(N)=O [EVYSFGEMPW] (Ac-[βAla]EVYSFGEMPW[βAla]-NH2) |  |  |  |  |  | 78% | 22% | 70% |

Results, then the molecule that gave them:

| remaining at 24 h [1, 4] | remaining at 24 h [2, 5] | remaining at 24 h [3, 6] | remaining at 24 h [3, 7] | remaining at 24 h [1, 8] | remaining at 24 h [2, 9] | remaining at 24 h [3, 10] | remaining at 24 h [3, 11] | SMILES |
| --- | --- | --- | --- | --- | --- | --- | --- | --- |
| 100% | 84% | 51% | 92% |  |  |  |  | CC(=O)NCCC(=O)N[C@@H](CCCCN)C(=O)N[C@@H](CC(C)C)C(=O)N[C@H](C(=O)N[C@@H](C)C(=O)N[C@@H](CC(=O)O)C(=O)N1CCC[C@H]1C(=O)N[C@H](C(=O)N[C@@H](C)C(=O)N[C@@H](CO)C(=O)N[C@@H](C)C(=O)N[C@@H](CCC(=O)O)C(=O)NCCC(N)=O)C(C)C)C(C)C [Pro-Val] (Ac-[βAla]KLVADPVASAE[βAla]-NH2) |
| 94% | 66% | 38% | 81% |  |  |  |  | CC(=O)NCCC(=O)N[C@@H](CCCCN)C(=O)N[C@@H](CC(C)C)C(=O)N[C@H](C(=O)N[C@@H](C)C(=O)N[C@@H](CC(=O)O)C(=O)N1CCC[C@H]1C(=O)N[C@@H](Cc1c[nH]c2ccccc12)C(=O)N[C@@H](C)C(=O)N[C@@H](CO)C(=O)N[C@@H](C)C(=O)N[C@@H](CCC(=O)O)C(=O)NCCC(N)=O)C(C)C [Pro-Trp] (Ac-[βAla]KLVADPWASAE[βAla]-NH2) |
| 100% | 74% | 46% | 90% |  |  |  |  | CSCC[C@H](NC(=O)[C@H](CC(=O)O)NC(=O)[C@H](C)NC(=O)[C@@H](NC(=O)[C@H](CC(C)C)NC(=O)[C@H](CCCCN)NC(=O)CCNC(C)=O)C(C)C)C(=O)N[C@@H](Cc1c[nH]cn1)C(=O)N[C@@H](C)C(=O)N[C@@H](CO)C(=O)N[C@@H](C)C(=O)N[C@@H](CCC(=O)O)C(=O)NCCC(N)=O [Met-His] (Ac-[βAla]KLVADMHASAE[βAla]-NH2) |
| 92% | 76% | 43% | 86% |  |  |  |  | CC[C@H](C)[C@H](NC(=O)[C@H](Cc1ccc(O)cc1)NC(=O)[C@H](CC(=O)O)NC(=O)[C@H](C)NC(=O)[C@@H](NC(=O)[C@H](CC(C)C)NC(=O)[C@H](CCCCN)NC(=O)CCNC(C)=O)C(C)C)C(=O)N[C@@H](C)C(=O)N[C@@H](CO)C(=O)N[C@@H](C)C(=O)N[C@@H](CCC(=O)O)C(=O)NCCC(N)=O [Tyr-Ile] (Ac-[βAla]KLVADYIASAE[βAla]-NH2) |
